Like-named read-outs stand apart in the source and are kept apart here.
Assays:
DYRK1A [1] = target: T1, DYRK1A (Homo sapiens, UniProt Q13627); assay: Kinase-GLO luminescent kinase assay; assay type: biochemical; settings: 1 μM compound; means of at least 3 measurements
T1 construct: purchased ProQinase (Freiburg, Germany)
Protocol: (§1) Bacterial expression plasmids for GST-DYRK1A-ΔC and GST-DYRK2 have been described earlier. […] Expression in logarithmically growing E. coli culture was performed for 3 h at 37°C (GST-DYRK1A-ΔC and GST-DYRK2), 3 h at 26°C (GST-HIPK2cat), over night at 28°C (GST-CLK1cat) or over night at room temperature (GST-DYRK1Bcat).
(§2) Compounds were screened for inhibitory effects against GST-DYRK1A-ΔC, GST-DYRK1Bcat, GST-DYRK2, GST-CLK1cat or GST-HIPK2cat using the Kinase-GLO Luminescent Kinase Assay from Promega. Assays were performed in a total volume of 10 μL in kinase-buffer (25 mM Hepes pH 7.4, 0.5 mM DTT, 5 mM MgCl2, 5 μM ATP) with appropriate peptide substrates (20 μM DYRKtide for the DYRKs and 100 μM DYRKtide for HIPK2, […]; or 100 μM RS domain-derived peptide for CLK1, […]). Assays were started with this amount of a kinase preparation that consumed approximately 90% of the ATP in the assay (linear range of the kinase titration curve). The reactions were run at room temperature for 30 min before 10 μL Kinase-GLO reagent was added. After incubation at room temperature for additional 10 min, luminescence was recorded for 1 s.

DYRK2 [2] = target: T2, DYRK2 (Homo sapiens, UniProt Q92630); assay: Kinase-GLO luminescent kinase assay; assay type: biochemical; settings: 1 μM compound; means of at least 3 measurements
T2 construct: purchased ProQinase (Freiburg, Germany)
T2 sequence (Q92630 1-601): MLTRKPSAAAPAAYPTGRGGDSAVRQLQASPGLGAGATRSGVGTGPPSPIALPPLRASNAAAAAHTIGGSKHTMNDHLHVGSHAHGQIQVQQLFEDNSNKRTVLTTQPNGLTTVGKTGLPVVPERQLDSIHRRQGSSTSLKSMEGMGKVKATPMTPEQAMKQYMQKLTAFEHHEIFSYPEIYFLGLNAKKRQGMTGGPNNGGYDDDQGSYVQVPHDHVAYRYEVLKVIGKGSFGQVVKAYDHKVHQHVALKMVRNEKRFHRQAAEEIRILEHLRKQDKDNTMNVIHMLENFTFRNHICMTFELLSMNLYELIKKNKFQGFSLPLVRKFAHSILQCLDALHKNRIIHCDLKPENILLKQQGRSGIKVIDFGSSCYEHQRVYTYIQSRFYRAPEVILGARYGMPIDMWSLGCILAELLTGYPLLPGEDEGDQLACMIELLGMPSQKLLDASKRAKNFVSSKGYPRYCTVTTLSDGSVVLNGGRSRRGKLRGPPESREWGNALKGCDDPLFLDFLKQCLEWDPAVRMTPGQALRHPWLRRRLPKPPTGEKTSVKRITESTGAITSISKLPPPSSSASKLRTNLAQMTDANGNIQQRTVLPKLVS
Protocol: as §1, §2

DYRK1A [3] = target: T3, DYRK1A (Rattus norvegicus, UniProt Q63470); assay: Radioactive kinase assay (DYRKtide, 33P-ATP); assay type: biochemical; settings: 100 μM ATP, n = 3–5 concentration response curves, read-out: Inhibition of DYRK1A IC50
T3 construct: Bacterial expression plasmids for GST-DYRK1A-ΔC and GST-DYRK2 have been described earlier; made in house; host or cells: E. coli
Protocol: Each sample was assayed in triplicate. […]
estimate solubility and permeability in drug discovery and development settings. Adv. Drug Delivery Rev. 23, 4-25. […]
that influence the oral bioavailability of drug candidates. […]
c estimated using the Molinspiration logP engine. […]
log [inhibitor,M] log [inhibitor, M]
(§3) 2 were calculated. Kinase activity of DYRK1A was determined by radiometric assays using the peptide DYRKtide as a substrate. MAO-A activity was measured with the help of the MAO-GLO assay kit (Promega). IC50 values were calculated by curve fitting with the help of […]
(§4) the […] PRISM 5.0 program after automatic outlier elimination. The graphs present

Cell viability XTT assay [4] = assay type: cell-based; settings: rat, PC12 cells, read-out: Viability of treated cells relative to untreated control; for viability at 3 days, 1 µM: PC12, 1 μM; for viability at 3 days, 3 µM: PC12, 3 μM; for viability at 3 days, 10 µM: PC12, 10 μM
DYRK1B = DYRK1B (Homo sapiens, UniProt Q9Y463); assay: Kinase-GLO luminescent kinase assay; assay type: biochemical; design: made in house; host or cells: E. coli; settings: 1 μM compound; means of at least 3 measurements
Protocol: as §1, §2

HIPK2 = HIPK2 (Homo sapiens, UniProt Q9H2X6); assay: Kinase-GLO luminescent kinase assay; assay type: biochemical; design: made in house; host or cells: E. coli; settings: 10 μM compound; means of at least 3 measurements
Protocol: as §1, §2

CLK1 [5] = target: T4, CLK1 (Homo sapiens, UniProt P49759); assay: Kinase-GLO luminescent kinase assay; assay type: biochemical; design: made in house; host or cells: E. coli; settings: 1 μM compound; means of at least 3 measurements
Protocol: as §1, §2

Cell viability XTT assay [6] = assay type: cell-based; settings: human, HeLa cells, read-out: Viability of treated cells relative to untreated control
MAO-A = target: T5, MAO-A (Homo sapiens, UniProt P21397); assay: MAO-GLO assay; assay type: biochemical; settings: for IC50: read-out: Inhibition of MAO-A IC50
T5 sequence (P21397 1-527): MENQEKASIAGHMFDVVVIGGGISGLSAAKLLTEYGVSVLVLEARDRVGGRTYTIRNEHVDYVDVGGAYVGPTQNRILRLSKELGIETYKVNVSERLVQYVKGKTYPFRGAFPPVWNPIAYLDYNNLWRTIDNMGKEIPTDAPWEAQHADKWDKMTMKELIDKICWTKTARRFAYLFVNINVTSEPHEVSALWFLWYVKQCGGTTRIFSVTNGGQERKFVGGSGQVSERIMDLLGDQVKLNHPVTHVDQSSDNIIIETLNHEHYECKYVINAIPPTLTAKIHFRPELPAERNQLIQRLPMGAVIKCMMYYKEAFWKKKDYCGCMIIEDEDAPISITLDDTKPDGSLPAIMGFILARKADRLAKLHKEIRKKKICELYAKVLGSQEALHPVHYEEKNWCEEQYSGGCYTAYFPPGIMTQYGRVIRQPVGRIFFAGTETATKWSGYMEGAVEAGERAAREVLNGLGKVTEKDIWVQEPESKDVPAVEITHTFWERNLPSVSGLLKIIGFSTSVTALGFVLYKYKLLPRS
Protocol: as §3, §4

Cell viability XTT assay [7] = assay type: cell-based; settings: human, SH-SY5Y cells, read-out: Viability of treated cells relative to untreated control
DYRK3 = target: T6, DYRK3 (Homo sapiens, UniProt O43781); settings: 10 μM; cited from earlier work
T6 construct: purchased ProQinase (Freiburg, Germany)
T6 sequence (O43781 1-588): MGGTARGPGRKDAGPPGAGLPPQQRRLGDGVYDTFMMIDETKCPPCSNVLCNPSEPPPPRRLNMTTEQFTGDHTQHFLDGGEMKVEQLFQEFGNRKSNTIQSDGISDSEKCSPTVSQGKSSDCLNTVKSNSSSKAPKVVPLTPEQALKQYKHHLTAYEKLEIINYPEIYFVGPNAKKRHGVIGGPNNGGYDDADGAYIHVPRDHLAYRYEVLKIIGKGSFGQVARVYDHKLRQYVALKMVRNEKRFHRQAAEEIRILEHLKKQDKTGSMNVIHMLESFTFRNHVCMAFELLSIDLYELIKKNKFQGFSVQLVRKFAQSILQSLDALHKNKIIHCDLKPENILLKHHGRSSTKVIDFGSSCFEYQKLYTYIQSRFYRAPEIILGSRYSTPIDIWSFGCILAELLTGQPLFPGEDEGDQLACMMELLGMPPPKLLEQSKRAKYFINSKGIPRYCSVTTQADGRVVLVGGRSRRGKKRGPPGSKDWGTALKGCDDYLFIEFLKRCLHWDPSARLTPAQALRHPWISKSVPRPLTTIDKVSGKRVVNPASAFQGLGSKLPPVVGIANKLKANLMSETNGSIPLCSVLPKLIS

DYRK2 [8] = target: T2, DYRK2; settings: 10 μM; cited from earlier work
CLK1 [9] = target: T4, CLK1; design: purchased ProQinase (Freiburg, Germany); settings: 10 μM; cited from earlier work
DYRK4 = target: T7, DYRK4 (Homo sapiens, UniProt Q9NR20); settings: 10 μM; cited from earlier work
T7 construct: purchased ProQinase (Freiburg, Germany)

CLK2 = target: T8, CLK2 (Homo sapiens, UniProt P49760); settings: 10 μM; cited from earlier work
T8 construct: purchased ProQinase (Freiburg, Germany)

HIPK1 = HIPK1 (Homo sapiens, UniProt Q86Z02); design: purchased ProQinase (Freiburg, Germany); settings: 10 μM; cited from earlier work
CLK3 = target: T9, CLK3 (Homo sapiens, UniProt P49761); settings: 10 μM; cited from earlier work
T9 construct: purchased ProQinase (Freiburg, Germany)

DYRK1A [10] = settings: given because %-activity values are not given in the reference; read-out: IC50; cited from earlier work
PIM1 = PIM1 (Homo sapiens, UniProt P11309); design: purchased ProQinase (Freiburg, Germany); settings: 10 μM; cited from earlier work
[11] = n = 3–5 concentration response curves

HIPK2, sequence (Q9H2X6 180-533): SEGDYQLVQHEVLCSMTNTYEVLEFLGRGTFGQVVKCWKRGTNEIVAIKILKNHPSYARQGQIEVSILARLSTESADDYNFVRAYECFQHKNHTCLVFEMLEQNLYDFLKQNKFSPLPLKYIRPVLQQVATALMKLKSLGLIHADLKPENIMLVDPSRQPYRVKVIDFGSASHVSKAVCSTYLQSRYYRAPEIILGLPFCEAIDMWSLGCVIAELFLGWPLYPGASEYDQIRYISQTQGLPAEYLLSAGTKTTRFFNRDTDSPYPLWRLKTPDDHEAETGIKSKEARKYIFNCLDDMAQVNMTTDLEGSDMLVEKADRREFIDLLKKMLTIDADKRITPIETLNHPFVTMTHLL
T9 sequence (P49761 whole entry): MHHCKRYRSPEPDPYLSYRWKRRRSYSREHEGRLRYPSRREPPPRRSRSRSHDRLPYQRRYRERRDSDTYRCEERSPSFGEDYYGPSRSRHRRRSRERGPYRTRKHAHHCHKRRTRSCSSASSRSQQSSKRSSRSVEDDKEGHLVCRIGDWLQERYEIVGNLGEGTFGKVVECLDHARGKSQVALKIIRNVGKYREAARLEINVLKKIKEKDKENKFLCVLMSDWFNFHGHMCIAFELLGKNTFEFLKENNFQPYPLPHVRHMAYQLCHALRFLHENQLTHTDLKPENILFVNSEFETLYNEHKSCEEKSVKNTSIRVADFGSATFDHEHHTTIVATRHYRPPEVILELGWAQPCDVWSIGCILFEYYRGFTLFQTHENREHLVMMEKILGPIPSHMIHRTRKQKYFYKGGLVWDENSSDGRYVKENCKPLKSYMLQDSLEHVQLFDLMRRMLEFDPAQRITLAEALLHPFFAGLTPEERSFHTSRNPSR
HIPK1, sequence (Q86Z02 whole entry): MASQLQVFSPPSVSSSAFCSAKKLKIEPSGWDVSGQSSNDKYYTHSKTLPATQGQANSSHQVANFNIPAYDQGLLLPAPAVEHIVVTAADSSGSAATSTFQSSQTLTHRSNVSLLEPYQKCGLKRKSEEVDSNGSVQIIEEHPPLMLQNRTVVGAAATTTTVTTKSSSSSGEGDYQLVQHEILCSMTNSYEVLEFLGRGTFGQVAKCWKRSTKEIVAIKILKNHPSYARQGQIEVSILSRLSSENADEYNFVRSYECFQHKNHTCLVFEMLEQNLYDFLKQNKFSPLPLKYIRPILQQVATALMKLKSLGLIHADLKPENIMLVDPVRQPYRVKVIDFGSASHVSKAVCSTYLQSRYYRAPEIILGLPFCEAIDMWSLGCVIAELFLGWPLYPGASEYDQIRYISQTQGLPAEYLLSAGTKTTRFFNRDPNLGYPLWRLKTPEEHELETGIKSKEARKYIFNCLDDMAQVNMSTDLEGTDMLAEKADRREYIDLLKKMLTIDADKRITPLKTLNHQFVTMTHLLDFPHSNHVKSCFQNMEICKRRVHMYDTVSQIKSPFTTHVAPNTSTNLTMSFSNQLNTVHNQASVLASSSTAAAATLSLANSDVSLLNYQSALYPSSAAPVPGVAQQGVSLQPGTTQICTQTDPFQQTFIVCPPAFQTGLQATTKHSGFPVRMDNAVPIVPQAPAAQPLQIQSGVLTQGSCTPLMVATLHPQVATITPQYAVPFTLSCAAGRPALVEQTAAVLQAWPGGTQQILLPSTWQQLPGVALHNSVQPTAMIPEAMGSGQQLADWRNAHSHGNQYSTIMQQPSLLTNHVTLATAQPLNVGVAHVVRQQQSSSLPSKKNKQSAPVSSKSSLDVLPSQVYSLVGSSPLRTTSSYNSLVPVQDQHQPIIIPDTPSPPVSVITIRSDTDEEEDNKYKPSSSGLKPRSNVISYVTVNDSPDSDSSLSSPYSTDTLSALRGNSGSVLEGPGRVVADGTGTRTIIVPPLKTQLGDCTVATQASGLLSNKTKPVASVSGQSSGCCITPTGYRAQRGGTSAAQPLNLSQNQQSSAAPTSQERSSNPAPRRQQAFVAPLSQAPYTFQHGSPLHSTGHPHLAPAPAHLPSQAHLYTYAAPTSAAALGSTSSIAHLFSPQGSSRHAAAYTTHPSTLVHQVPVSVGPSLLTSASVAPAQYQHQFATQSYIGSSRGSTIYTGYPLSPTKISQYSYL
T8 sequence (P49760 whole entry): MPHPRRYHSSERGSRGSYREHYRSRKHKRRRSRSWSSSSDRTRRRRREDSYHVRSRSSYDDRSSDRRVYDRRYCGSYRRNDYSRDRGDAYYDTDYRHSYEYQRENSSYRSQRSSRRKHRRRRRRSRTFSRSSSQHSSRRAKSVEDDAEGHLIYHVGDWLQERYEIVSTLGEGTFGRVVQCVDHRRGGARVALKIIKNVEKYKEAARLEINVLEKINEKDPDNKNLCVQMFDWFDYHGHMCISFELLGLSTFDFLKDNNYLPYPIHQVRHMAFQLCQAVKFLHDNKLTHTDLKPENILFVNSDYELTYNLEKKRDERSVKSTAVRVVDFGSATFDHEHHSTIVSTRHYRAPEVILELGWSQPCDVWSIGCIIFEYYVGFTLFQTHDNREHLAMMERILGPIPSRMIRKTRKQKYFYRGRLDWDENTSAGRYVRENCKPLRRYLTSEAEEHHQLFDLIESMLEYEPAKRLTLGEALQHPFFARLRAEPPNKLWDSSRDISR
PIM1, sequence (P11309 whole entry): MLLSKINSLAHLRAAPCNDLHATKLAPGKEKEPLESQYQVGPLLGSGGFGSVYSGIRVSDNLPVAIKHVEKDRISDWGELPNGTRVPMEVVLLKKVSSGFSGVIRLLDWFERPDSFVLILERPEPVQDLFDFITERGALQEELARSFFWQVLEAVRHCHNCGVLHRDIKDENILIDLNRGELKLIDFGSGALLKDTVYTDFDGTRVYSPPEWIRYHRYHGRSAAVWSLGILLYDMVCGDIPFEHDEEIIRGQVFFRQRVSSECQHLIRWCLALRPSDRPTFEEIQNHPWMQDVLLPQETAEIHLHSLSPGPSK
T7 sequence (Q9NR20 whole entry): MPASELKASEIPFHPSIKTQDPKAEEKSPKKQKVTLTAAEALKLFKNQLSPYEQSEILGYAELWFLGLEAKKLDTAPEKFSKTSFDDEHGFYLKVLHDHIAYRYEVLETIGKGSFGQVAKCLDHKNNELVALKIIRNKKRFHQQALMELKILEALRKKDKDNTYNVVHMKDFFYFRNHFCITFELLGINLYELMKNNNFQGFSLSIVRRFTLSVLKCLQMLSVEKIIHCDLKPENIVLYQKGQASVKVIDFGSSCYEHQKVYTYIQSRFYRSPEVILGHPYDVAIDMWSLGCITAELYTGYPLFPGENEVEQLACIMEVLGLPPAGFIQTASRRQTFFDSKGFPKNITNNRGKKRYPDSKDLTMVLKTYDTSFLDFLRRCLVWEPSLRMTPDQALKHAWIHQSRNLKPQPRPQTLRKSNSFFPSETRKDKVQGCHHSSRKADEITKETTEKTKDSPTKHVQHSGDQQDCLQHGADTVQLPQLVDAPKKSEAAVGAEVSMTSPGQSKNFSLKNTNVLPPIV

SMILES	Residual activity (% of control) DYRK1A (DYRK1A [1])	Residual activity (% of control) DYRK2 (DYRK2 [2])	IC50 (DYRK1A [3])	viability at 3 days, 1 µM (Cell viability XTT assay [4])	viability at 3 days, 3 µM (Cell viability XTT assay [4])	viability at 3 days, 10 µM (Cell viability XTT assay [4])	Residual activity (% of control) DYRK1B (DYRK1B)	Residual activity (% of control) HIPK2 (HIPK2)	Residual activity (% of control) CLK1 (CLK1 [5])	viability at 3 days, 1 µM (Cell viability XTT assay [6])	viability at 3 days, 3 µM (Cell viability XTT assay [6])	viability at 3 days, 10 µM (Cell viability XTT assay [6])	IC50 (MAO-A; [11])	viability at 3 days, 1 µM (Cell viability XTT assay [7])	viability at 3 days, 3 µM (Cell viability XTT assay [7])	viability at 3 days, 10 µM (Cell viability XTT assay [7])	also measured
COc1ccc2c3ccnc(C)c3n(CC#N)c2c1 [AnnH31]	8 % of control	59 % of control	0.081 µM	89%	88%	70%	7 % of control	70 % of control	11 % of control	93%	80%	55%	3.24 µM	81%	88%	38%	inhibition at 1 µM (MAO-A; 1 μM, primary screen): 25%; selectivity for DYRK1A over MAO-A (MAO-A; ratio of IC50 values): 40 fold; IC50 (MAO-A): 3.2 µM
COc1ccc2c3ccnc(C)c3n(C(C)C#N)c2c1 (centres unmarked) [AnnH43]	5 % of control	56 % of control	0.202 µM	88%	88%	90%	14 % of control	84 % of control	10 % of control	91%	80%	66%	5.39 µM	61%	68%	45%	
CCN1/C(=C/C(C)=O)Sc2ccc(O)cc21 [INDY]																	Residual activity (% of control) (DYRK3): 0 % of control; Residual activity (% of control) (DYRK2 [8]): 3 % of control; Residual activity (% of control) (CLK1 [9]): 1 % of control; Residual activity (% of control) (DYRK4): 13 % of control; Residual activity (% of control) (CLK2): 12 % of control; Residual activity (% of control) (HIPK1): 64 % of control; Residual activity (% of control) (CLK3): 30 % of control; IC50 (DYRK1A [10]): […]; Residual activity (% of control) (PIM1): 2 % of control

From publication PMC4508061, “Selectivity Profiling and Biological Activity of Novel β-Carbolines as Potent and Selective DYRK1 Kinase Inhibitors” (PLoS ONE, 2015)
